Experimental data taken from US8785470B2, “Heterocyclic compounds and uses thereof” (Infinity Pharmaceuticals, Inc., priority 2011, dated 2014).
Like-named read-outs stand apart in the source and are kept apart here.

How the values were obtained:
[1] = system: phospho-AKT in RAJI cells (PI3Kδ); experiment: PI3Kδ selective assay, phospho-AKT in RAJI cells; type: cell-based; settings: RAJI cells stimulated with anti-human IgM; read-out: IC50 for phospho-AKT, RAJI cell model
From the text: A compound's ability in selectively inhibiting PI3Kδ can be assessed using RAJI cells, i.e., B lymphocyte cells derived from lymphoma patients. Briefly, serum-starved RAJI cells are stimulated with anti-human IgM, thereby causing signaling through the B-cell receptors, as described in, for example, He et al., Leukemia Research (2009) 33: 798-802. B-cell receptor signaling is important for the activation, differentiation, and survival of B cells and certain B-cell derived cancers. Reduction of phospho-AKT is indicative of compounds that may inhibit B-cell proliferation and function in certain diseases. By monitoring the reduction of phospho-AKT in stimulated RAJI cells (using for example, phospho-AKT antibodies), a compound's potential efficacy in selectively inhibiting PI3Kδ can be assessed.

[2] = system: phospho-AKT in RAW 264.7 cells (PI3Kγ); experiment: PI3Kγ selective assay, phospho-AKT in RAW 264.7 cells; type: cell-based; settings: Mus musculus, RAW264.7, stimulated with C5a, read-out: IC50 for phospho-AKT, RAW 264.7 cell model
From the text: A compound's ability in selectively inhibiting PI3Kγ can be assessed using RAW264.7 macrophages. Briefly, serum-starved PAW264.7 cells are stimulated with a known GPCR agonist C5a. (See, e.g., Camps et al., Nature Medicine (2005) 11(9): 936-943). Cells can be treated with test compounds prior to, simultaneously with, or subsequent to the stimulation by C5a. RAW 264.7 cells respond to the complement component fragment C5a through activation of the C5a receptor, and the C5a receptor activates macrophages and induces cell migration. Test compounds' ability to inhibit C5a-mediated AKT phosphorylation is indicative of selective inhibition of PI3Kγ. Thus, by monitoring the reduction of phospho-AKT in stimulated RAW 264.7 cells (using for example, phospho-AKT antibodies), a compound's potential efficacy in selectively inhibiting PI3Kγ can be assessed.

[3] = target: T1, PI3Kα (Homo sapiens, UniProt P42336); experiment: PI3-Kinase HTRF assay, PI3Kα; type: biochemical; settings: bins Greater than 10 μM and Greater than 1 μM to 10 μM; 10 μM ATP, PIP2 at 10 μM; read-out: IC50 P13Kα
T1 construct: purchased Millipore Corporation 14-602-K
T1 sequence (P42336 whole entry): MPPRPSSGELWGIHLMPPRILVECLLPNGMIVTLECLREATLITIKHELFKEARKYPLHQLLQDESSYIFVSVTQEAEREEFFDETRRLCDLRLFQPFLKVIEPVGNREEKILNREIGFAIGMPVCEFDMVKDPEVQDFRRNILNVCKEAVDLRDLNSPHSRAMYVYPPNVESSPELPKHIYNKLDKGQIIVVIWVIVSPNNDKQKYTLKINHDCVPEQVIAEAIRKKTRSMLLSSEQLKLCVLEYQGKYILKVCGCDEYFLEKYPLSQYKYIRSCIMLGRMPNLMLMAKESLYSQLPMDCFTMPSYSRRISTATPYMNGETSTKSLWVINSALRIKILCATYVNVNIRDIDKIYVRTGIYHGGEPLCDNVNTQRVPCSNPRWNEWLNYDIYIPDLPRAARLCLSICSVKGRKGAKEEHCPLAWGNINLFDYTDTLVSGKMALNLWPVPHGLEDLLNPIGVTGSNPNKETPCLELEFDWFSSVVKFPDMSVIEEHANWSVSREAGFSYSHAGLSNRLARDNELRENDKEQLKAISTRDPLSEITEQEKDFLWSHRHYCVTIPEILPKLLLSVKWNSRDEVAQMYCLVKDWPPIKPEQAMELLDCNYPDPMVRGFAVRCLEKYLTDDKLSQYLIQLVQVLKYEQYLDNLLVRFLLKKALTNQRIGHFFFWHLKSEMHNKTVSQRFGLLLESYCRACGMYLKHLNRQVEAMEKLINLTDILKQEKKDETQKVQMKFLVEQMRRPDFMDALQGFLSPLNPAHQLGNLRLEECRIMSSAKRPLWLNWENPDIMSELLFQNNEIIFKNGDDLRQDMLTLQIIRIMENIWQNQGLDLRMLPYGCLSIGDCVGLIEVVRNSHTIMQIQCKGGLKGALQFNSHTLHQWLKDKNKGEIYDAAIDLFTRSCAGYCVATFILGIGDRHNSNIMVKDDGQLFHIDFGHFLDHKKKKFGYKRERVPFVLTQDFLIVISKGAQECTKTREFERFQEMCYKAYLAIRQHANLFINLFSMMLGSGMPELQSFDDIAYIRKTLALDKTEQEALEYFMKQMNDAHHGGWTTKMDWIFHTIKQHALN
T1 sequence (P27986 whole entry partner): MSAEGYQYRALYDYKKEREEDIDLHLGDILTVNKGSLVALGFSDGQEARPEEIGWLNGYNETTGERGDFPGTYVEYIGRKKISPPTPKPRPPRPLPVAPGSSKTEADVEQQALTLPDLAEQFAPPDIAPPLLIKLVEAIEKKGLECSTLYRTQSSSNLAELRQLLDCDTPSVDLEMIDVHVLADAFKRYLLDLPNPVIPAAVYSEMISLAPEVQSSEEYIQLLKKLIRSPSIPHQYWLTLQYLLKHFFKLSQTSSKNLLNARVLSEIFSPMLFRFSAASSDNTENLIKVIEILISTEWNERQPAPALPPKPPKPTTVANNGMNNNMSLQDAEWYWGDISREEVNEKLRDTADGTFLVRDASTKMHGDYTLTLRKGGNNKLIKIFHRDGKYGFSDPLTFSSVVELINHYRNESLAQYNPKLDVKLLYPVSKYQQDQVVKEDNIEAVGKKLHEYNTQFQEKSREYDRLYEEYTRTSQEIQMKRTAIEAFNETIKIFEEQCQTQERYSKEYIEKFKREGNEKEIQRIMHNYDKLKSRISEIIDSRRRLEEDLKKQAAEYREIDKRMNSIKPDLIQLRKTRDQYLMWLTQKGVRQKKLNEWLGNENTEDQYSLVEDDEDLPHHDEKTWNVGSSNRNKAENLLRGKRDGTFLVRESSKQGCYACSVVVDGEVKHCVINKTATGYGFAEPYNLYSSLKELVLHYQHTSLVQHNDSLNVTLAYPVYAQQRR
Summary of the method: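 Purified recombinant human PI3Kα, β, γ or δ (0.25-0.3 μg/ml) preincubated 15 min at room temperature with compound (2% DMSO) and 10 μM PIP2, then reacted 1 h with 10 μM ATP. PIP3 product detected by competitive HTRF (GST-PH domain/biotin-PIP3); IC50 from 12-point curves, 20 μM to 0.1 nM, by nonlinear regression.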

[4] = target: T2, PI3Kβ (Homo sapiens, UniProt P42338); experiment: PI3-Kinase HTRF assay, PI3Kβ; type: biochemical; settings: bins Greater than 10 μM and Greater than 1 μM to 10 μM; 10 μM ATP, PIP2 at 10 μM
T2 construct: purchased Millipore Corporation 14-603-K
T2 sequence (P42338 whole entry): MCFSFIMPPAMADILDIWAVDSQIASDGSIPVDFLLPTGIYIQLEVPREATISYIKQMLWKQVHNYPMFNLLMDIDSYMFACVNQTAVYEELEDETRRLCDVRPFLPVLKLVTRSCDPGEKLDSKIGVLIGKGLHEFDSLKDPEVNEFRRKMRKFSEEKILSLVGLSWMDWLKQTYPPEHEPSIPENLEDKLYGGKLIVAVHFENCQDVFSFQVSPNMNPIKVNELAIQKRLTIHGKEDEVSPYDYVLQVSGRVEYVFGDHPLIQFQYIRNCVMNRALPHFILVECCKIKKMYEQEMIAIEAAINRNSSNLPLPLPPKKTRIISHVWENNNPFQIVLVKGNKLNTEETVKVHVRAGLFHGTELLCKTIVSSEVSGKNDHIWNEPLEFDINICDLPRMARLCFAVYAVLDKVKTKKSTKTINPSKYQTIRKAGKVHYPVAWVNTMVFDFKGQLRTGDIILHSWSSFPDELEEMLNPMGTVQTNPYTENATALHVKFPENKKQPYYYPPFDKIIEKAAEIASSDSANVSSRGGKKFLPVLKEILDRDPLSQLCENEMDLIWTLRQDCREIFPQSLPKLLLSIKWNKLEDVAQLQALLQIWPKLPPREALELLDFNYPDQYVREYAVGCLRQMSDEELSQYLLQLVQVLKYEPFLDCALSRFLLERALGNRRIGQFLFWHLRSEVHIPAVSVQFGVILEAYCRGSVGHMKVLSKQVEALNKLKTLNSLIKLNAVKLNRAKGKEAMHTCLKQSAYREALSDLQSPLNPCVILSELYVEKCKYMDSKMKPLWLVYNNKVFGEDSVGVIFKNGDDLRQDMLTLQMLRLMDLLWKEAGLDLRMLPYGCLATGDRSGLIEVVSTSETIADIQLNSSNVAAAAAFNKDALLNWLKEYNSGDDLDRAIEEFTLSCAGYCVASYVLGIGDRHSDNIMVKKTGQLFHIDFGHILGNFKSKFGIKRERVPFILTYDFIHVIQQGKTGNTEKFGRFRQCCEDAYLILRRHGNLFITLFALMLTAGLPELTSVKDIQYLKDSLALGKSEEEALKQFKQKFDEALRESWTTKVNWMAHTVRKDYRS
T2 sequence (P27986 whole entry partner): as the sequence (P27986 whole entry partner) above
From the text: A PI3-Kinase HTRF® assay kit (cat No. 33-016) purchased from Millipore Corporation was used to screen compounds provided herein. This assay used specific, high affinity binding of the GRPI pleckstrin homology (PH) domain to PIP3, the product of a Class 1A or 1B PI3 Kinase acting on its physiological substrate PIP2. During the detection phase of the assay, a complex was generated between the GST-tagged PH domain and biotinylated short chain PIP3. The biotinylated PIP3 and the GST-tagged PH domain recruited fluorophores (Streptavidin-Allophycocyanin and Europium-labeled anti-GST respectively) to form the fluorescence resonance energy transfer (FRET) architecture, generating a stable time-resolved FRET signal. The FRET complex was disrupted in a competitive manner by non-biotinylated PIP3, a product formed in the PI3 Kinase assay.
PI3 Kinase α, β, γ and δ activity was assayed using the PI3 Kinase HTRF® assay kit (catalogue No. 33-016) purchased from Millipore Corporation. Purified recombinant PI3Kα (catalogue No. 14-602-K), PI3Kβ (catalogue No. 14-603-K), PI3Kγ (catalogue No. 14-558-K) and PI3Kδ (catalogue No. 14-604-K) were obtained from Millipore Corporation. Purified recombinant PI3K enzyme was used to catalyze the phosphorylation of phosphatidylinositol 4,5-bisphosphate (PIP2 at 10 μM) to phosphatidylinositol 3,4,5-trisphosphate (PIP3) in the presence of 10 μM ATP. The assay was carried out in 384-well format and detected using a Perkin Elmer EnVision Xcite Multilabel Reader. Emission ratios were converted into percent inhibitions and imported into GraphPad Prism software. The concentration necessary to achieve inhibition of enzyme activity by 50% (IC50) was calculated using concentrations ranging from 20 μM to 0.1 nM (12-point curve). IC50 values were determined using a nonlinear regression model available in GraphPad Prism 5. […]

[5] = system: Balb/c splenic B cells; experiment: B cell activation and proliferation assay; type: cell-based; settings: Mus musculus, column bins 1 μM to 100 nM (given as 100-1000) and Less than 100 nM, read-out: B cell proliferation EC50
Summary of the method: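 Balb/c splenic B cells were isolated by Ficoll gradient and magnetic separation, plated at 50.000 cells/well in RPMI/10% FBS, and pre-incubated with compound for 30 min at 37° C (0.2% DMSO). Cells were stimulated for 72 h with a cocktail of 10 μg/ml LPS or 5 μg/ml anti-mouse IgM F(ab′)2 plus 2 ng/ml IL4. Alamar Blue fluorescence (560Ex/590Em) after 5 h gave IC50 or EC50.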

[6] = ranges less than 100 nM and between 100 nM and 1 μM (given as 100-1000)

Row | SMILES | IC50 [1] [nM] | IC50 [2, 6] [nM] | IC50 [3] [nM] | IC50 ([2]; range between 1 μM and 10 μM) [nM] | IC50 [4] [nM] | EC50 [5] [nM]
1 | C[C@H](Nc1nc(N)ncc1-c1cn[nH]c1)c1cc2cccc(Cl)c2c(=O)n1-c1ccccc1 [Compound 378] | < 100 | 100 to 1000 | – | – | – | –
2 | CCS(=O)(=O)c1cccc(-c2cnc(N)nc2N[C@@H](C)c2cc3cccc(Cl)c3c(=O)n2-c2ccccc2)c1 [Compound 416] | < 100 | < 100 | 1000 to 10000 | – | – | –
3 | C[C@H](Nc1nc(N)ncc1-c1cccc(S(=O)(=O)N(C)C)c1)c1cc2cccc(Cl)c2c(=O)n1-c1ccccc1 [Compound 413] | < 100 | < 100 | – | – | – | –
4 | Cc1ncc(-c2cccc3cc([C@H](C)Nc4ncnc(N)c4C#N)n(-c4ccon4)c(=O)c23)cn1 [Compound 336] | < 100 | – | – | 1000 to 10000 | – | –
5 | C[C@H](Nc1ncncc1-c1cccc(S(=O)(=O)N(C)C)c1)c1cc2cccc(Cl)c2c(=O)n1-c1ccccc1 [Compound 422] | < 100 | < 100 | 1000 to 10000 | – | – | –
6 | C[C@H](Nc1nc(N)ncc1-c1cccc(S(=O)(=O)N2CCCCC2)c1)c1cc2cccc(Cl)c2c(=O)n1-c1ccccc1 [Compound 157] | < 100 | < 100 | – | – | – | –
7 | CNS(=O)(=O)c1cccc(-c2cnc(N)nc2N[C@@H](C)c2cc3cccc(Cl)c3c(=O)n2-c2ccccc2)c1 [Compound 418] | < 100 | < 100 | 1000 to 10000 | – | – | –
8 | COc1ncc(-c2cccc3cc([C@H](C)Nc4ncnc(N)c4C#N)n(-c4ccccc4)c(=O)c23)cn1 [Compound 356] | < 100 | 100 to 1000 | – | – | – | –
9 | C[C@H](Nc1nc(N)ncc1C#N)c1cc2cccc(Cl)c2c(=O)n1-c1cc(F)cc(F)c1 [Compound 273] | < 100 | 100 to 1000 | – | – | – | –
10 | C=CS(=O)(=O)Nc1cccc(-c2cnc(N)nc2N[C@@H](C)c2cc3cccc(Cl)c3c(=O)n2-c2ccccc2)c1 [Compound 415] | < 100 | < 100 | – | – | – | –
11 | C[C@H](Nc1nc(N)ncc1-c1cccc(S(=O)(=O)N2CCCC2)c1)c1cc2cccc(Cl)c2c(=O)n1-c1ccccc1 [Compound 419] | < 100 | < 100 | – | – | – | –
12 | C[C@H](Nc1ncnc(N)c1C#N)c1cc2cccc(Cl)c2c(=O)n1-c1ccon1 [Compound 335] | < 100 | 100 to 1000 | – | – | – | –
13 | C[C@H](Nc1nc(N)ncc1-c1cccc(NS(=O)(=O)N(C)C)c1)c1cc2cccc(Cl)c2c(=O)n1-c1ccccc1 [Compound 410] | < 100 | < 100 | – | – | – | –
14 | CC(C)OC(=O)c1cccc(-n2c([C@H](C)Nc3nc(N)ncc3C#N)cc3cccc(Cl)c3c2=O)c1 [Compound 312] | < 100 | 100 to 1000 | – | – | – | –
15 | C[C@H](Nc1nc(N)ncc1C#N)c1cc2cccc(Cl)c2c(=O)n1C [Compound 276] | – | < 100 | – | – | – | –
16 | CC(=O)c1cnc(N)nc1N[C@@H](C)c1cc2cccc(Cl)c2c(=O)n1-c1ccccc1 [Compound 394] | < 100 | < 100 | – | – | – | –
17 | CC(C)C(=O)c1cnc(N)nc1N[C@@H](C)c1cc2cccc(Cl)c2c(=O)n1-c1ccccc1 [Compound 424] | < 100 | 100 to 1000 | 1000 to 10000 | – | – | –
18 | COc1ncc(-c2cccc3cc([C@H](C)Nc4nc(N)ncc4C#N)n(C(C)C)c(=O)c23)cn1 [Compound 327] | < 100 | 100 to 1000 | 1000 to 10000 | – | – | –
19 | C[C@H](Nc1nc(N)ncc1C#N)c1nc2cccc(-c3cnn(C)c3)c2c(=O)n1-c1ccccc1 [Compound 61] | – | – | 1000 to 10000 | – | 1000 to 10000 | < 100

Now from value to molecule, other results behind:

Row | IC50 [1] [nM] | IC50 [2, 6] [nM] | IC50 [3] [nM] | IC50 ([2]; range between 1 μM and 10 μM) [nM] | IC50 [4] [nM] | SMILES | EC50 [5] [nM]
20 | < 100 | < 100 | – | – | – | C[C@H](Nc1nc(N)ncc1-c1ccoc1)c1cc2cccc(Cl)c2c(=O)n1-c1ccccc1 [Compound 379] | –
21 | – | < 100 | 1000 to 10000 | – | – | C[C@H](Nc1nc(N)ncc1C#N)c1cc2cccc(-c3cccc(NS(=O)(=O)N(C)C)c3)c2c(=O)n1-c1ccccc1 [Compound 127] | –
22 | < 100 | 100 to 1000 | – | – | – | C[C@H](Nc1nc(N)ncc1-c1cncs1)c1cc2cccc(-c3ccc(=O)n(C)c3)c2c(=O)n1-c1ccccc1 [Compound 387] | –
23 | < 100 | 100 to 1000 | – | – | – | C[C@H](Nc1nc(N)ncc1-c1cscn1)c1cc2cccc(-c3ccc(=O)n(C)c3)c2c(=O)n1-c1ccccc1 [Compound 393] | –
24 | < 100 | 100 to 1000 | – | – | – | COc1cc(-c2cccc3cc(CNc4nc(N)ncc4C#N)n(-c4ccccc4)c(=O)c23)ccn1 [Compound 242] | –
25 | < 100 | < 100 | 1000 to 10000 | – | – | COc1ccc(-c2cnc(N)nc2N[C@@H](C)c2cc3cccc(Cl)c3c(=O)n2-c2ccccc2)cn1 [Compound 383] | –
26 | < 100 | < 100 | 1000 to 10000 | – | – | C[C@H](Nc1nc(N)ncc1-c1cccc(S(N)(=O)=O)c1)c1cc2cccc(Cl)c2c(=O)n1-c1ccccc1 [Compound 414] | –
27 | – | – | 1000 to 10000 | – | 1000 to 10000 | C[C@H](Nc1nc(N)ncc1C#N)c1cc2cccc(-c3ccc(C#N)cc3)c2c(=O)n1-c1ccccc1 [Compound 43] | < 100
28 | – | – | 1000 to 10000 | – | 1000 to 10000 | C[C@H](Nc1nc(N)ncc1C#N)c1cc2cccc(-c3ccc(S(N)(=O)=O)cc3)c2c(=O)n1-c1ccccc1 [Compound 45] | < 100
29 | – | – | 1000 to 10000 | – | 1000 to 10000 | C[C@H](Nc1nc(N)ncc1C#N)c1cc2cccc(-c3ccc(NS(C)(=O)=O)cc3)c2c(=O)n1-c1ccccc1 [Compound 167] | < 100
30 | – | – | 1000 to 10000 | – | 1000 to 10000 | C[C@H](Nc1nc(N)ncc1C#N)c1cc2cccc(-c3ccc(N(C)C)cc3)c2c(=O)n1-c1ccccc1 [Compound 42] | < 100
31 | – | – | 1000 to 10000 | – | 1000 to 10000 | C[C@H](Nc1nc(N)ncc1C#N)c1nc2cccc(-c3ccnnc3)c2c(=O)n1-c1ccccc1 [Compound 66, (S)-2-amino-4-((1-(4-oxo-3-phenyl-5-(pyridazin-4-yl)-3,4-dihydroquinazolin-2-yl)ethyl)amino)pyrimidine-5-carbonitrile] | < 100
32 | – | – | 1000 to 10000 | – | 1000 to 10000 | C[C@H](Nc1nc(N)ncc1C#N)c1cc2cccc(-c3cncc(C(F)(F)F)c3)c2c(=O)n1-c1ccccc1 [Compound 52] | < 100
33 | < 100 | < 100 | 1000 to 10000 | – | – | C[C@H](Nc1nc(N)ncc1C#N)c1cc2cccc(Cl)c2c(=O)n1-c1cccc(C#N)c1 [Compound 285] | –
